Data reported in article PMC10529594, “Strasseriolides display in vitro and in vivo activity against trypanosomal parasites and cause morphological and size defects in Trypanosoma cruzi” (PLOS Neglected Tropical Diseases, 2023).
“And” between values parts separate entries of the source, which are not always exact repeats. Equal values may be shown once. Read-outs that look alike come from different tables or passages of the source.

How the values were obtained:
[1] = system: human macrophage THP-1 cells; test: Cytotoxicity in THP-1 macrophages (MTT); assay type: cell-based
Experimental: Cellular toxicity of compounds in the human macrophage host TPH-1 cell line was determined using the colorimetric MTT-based assay as previously described.
THP-1 cells were seeded at 3 × 10^4 cells/well in 96-well plates and were differentiated to macrophages with 20 ng/ml of PMA treatment for 48 h followed by 24 h incubation in fresh medium. Strasseriolides were added at increasing concentrations up to 50 μM and cells were further incubated at 37°C for 72 h. 10 μL of MTT (5 mg/mL in PBS) were added to each well, and plates were incubated for an additional period of 8 h at 37°C. Formazan crystals were dissolved by adding 50 μL of 20% SDS and absorbance was read at 595 nm using a microplate reader.

[2] = system: transgenic Trypanosoma cruzi Brazil strain expressing firefly luciferase; test: In vivo efficacy, acute T. cruzi infection in BALB/c mice (luciferase imaging)
Experimental: In vivo experiments were performed at the Anti-infectives Screening Core Services facility of the New York University School of Medicine. The transgenic Trypanosoma cruzi Brazil strain expressing firefly luciferase was used. Groups of five female BALB/c mice were infected with 2 × 10^6 T. cruzi trypomastigotes. […] Quantification is based on luciferase activity of the parasites after i.p. injection of 150 mg/Kg D-luciferin potassium-salt in PBS. Luminescence is measured on the fifth day using an IVIS Lumina II imager.

Plasmodium berghei = system: Plasmodium berghei; set-up: method as in PMID 34865639; details: Plasmodium berghei murine model; cited from earlier work
T. cruzi trypomastigotes = test: T. cruzi trypomastigote viability / rate of action assay (CellTiter-Glo bioluminescence); assay type: cell-based, Trypanosoma cruzi; details: for EC50: Trypanosoma cruzi; for EC90/EC50 / Hill slope: Trypomastigotes
Experimental: Tulahuen T. cruzi trypomastigotes were recovered 6 days post infection from the supernatant of harvested infected L6 cells cultures after 3 hours at 37°C. 90 μL of parasite culture at a density of 5 × 10^6 cells in RPMI 1640 media were dispensed into 96 Nunc flat bottom assay plates containing 10 μL of each compound.
Parasite viability was assessed upon 24, 48 and 72 hour incubation at 37°C in 5% CO2 by adding 50 μL of CellTiter-Glo viability reagent to white 96-well microplates. After signal stabilization, bioluminescence was read. Compound concentrations ranged from 0.1 μM to 50 μM and final maximal DMSO percentage in the well was 0.05%. Results were normalized to […] control columns in each plate.

[3] = system: intracellular T. cruzi amastigotes; test: Rate of kill, intracellular T. cruzi amastigotes (CPRG, 96-well); assay type: cell-based, Trypanosoma cruzi; details: for EC90/EC50 / Hill slope / EC50: Amastigotes; for Growth inhibition (%), individual replicates / inhibition at 50 µM: T. cruzi amastigotes, 50 µM; for inhibition at 50 µM / EC50: Trypanosoma cruzi
Experimental: For rate of kill experiments, in vitro activity against intracellular T. cruzi amastigotes was analyzed at early time points: 24, 48 and 72 hours. The standard colorimetric transgenic assay was established in a 96-well format, with serial dilutions of compounds and 0.05% as the final maximal DMSO percentage per well. In these experiments L6 host cells were included as negative controls and CPRG conversion was monitored at 585 nm using a Versamax microplate reader (Molecular devices).

[4] = system: T. b. brucei 427 bloodstream forms; test: Resazurin-based T. b. brucei assay; assay type: cell-based; details: Trypanosoma brucei, 72 h, read-out: EC50 T. brucei
Experimental: Parasites strains adapted to culture in vitro were used. T. b. brucei Lister 427 bloodstream form parasites (information about the identity and genealogy of this strain is available at The Rockefeller University website) were grown in HMI-9 medium supplemented with 10% heat-inactivated fetal bovine serum (iFBS).
Cells in logarithmic phase of growth were added using a Multidrop dispenser (45 μL, 500 bloodstream T. b. brucei parasites per well) to 384-well Corning assay plates already containing 5 μL of each compound and controls, and incubated for 72 hours at 37°C. 10 μL of resazurin were added per well, and the plates were further incubated for 6 hours at 37°C. The final fluorescence was determined at 550–590 nm. Pentamidine at 40 nM and 0.0067% DMSO were used as […] growth controls, respectively.

## C/C1=C\[C@H](C)C(=O)C[C@@H](O)/C(C)=C/[C@H](C)C[C@@H](C)CC[C@@H]([C@@H](C)C(=O)O)OC(=O)[C@@H](C)C1 [Strasseriolide C, strasseriolide C]
[1]
  Selectivity index intracellular L. donovani versus THP-1 cells: 68
[1]; Homo sapiens, THP-1, 72 h, MTT, read-out: EC50 THP-1
  EC50: 448 µM
[2]; 50 mg/kg i.p. 5 days from 72 h post-infection, 50 mg/kg
  Total counts, individual mouse: 1820000 and 5150000 and 2580000 and 6540000 and 3640000
[2]; 50 mg/kg i.p. 5 days from 72 h post-infection, vehicle average 8050000
  Total counts, Average: 3940000
[2]; acute infection model, 50 mg/Kg i.p., 5 days
  parasitaemia in vivo: lowers parasitaemia
Plasmodium berghei
  in vivo antiprotozoal activity: exhibit in vivo antiprotozoal activity
T. cruzi trypomastigotes; 24 h, 0.0976562 µM, untreated 165925
  RLU Average, trypomastigote viability: 163790 RLU
T. cruzi trypomastigotes; 24 h, 0.195312 µM, untreated 165925
  RLU Average, trypomastigote viability: 163102 RLU
T. cruzi trypomastigotes; 24 h, 0.390625 µM, untreated 165925
  RLU Average, trypomastigote viability: 158420 RLU
T. cruzi trypomastigotes; 24 h, 0.78125 µM, untreated 165925
  RLU Average, trypomastigote viability: 147331 RLU
T. cruzi trypomastigotes; 24 h, 1.5625 µM, untreated 165925
  RLU Average, trypomastigote viability: 130562 RLU
T. cruzi trypomastigotes; 24 h, 3.125 µM, untreated 165925
  RLU Average, trypomastigote viability: 103284 RLU
T. cruzi trypomastigotes; 24 h, 6.25 µM, untreated 165925
  RLU Average, trypomastigote viability: 45263 RLU
T. cruzi trypomastigotes; 24 h, 12.5 µM, untreated 165925
  RLU Average, trypomastigote viability: 26648 RLU
T. cruzi trypomastigotes; 24 h, 25 µM, untreated 165925
  RLU Average, trypomastigote viability: 23620 RLU
T. cruzi trypomastigotes; 24 h, 50 µM, untreated 165925
  RLU Average, trypomastigote viability: 23277 RLU
T. cruzi trypomastigotes; 48 h, 0.0976562 µM, untreated 141819
  RLU Average, trypomastigote viability: 140243 RLU
T. cruzi trypomastigotes; 48 h, 0.195312 µM, untreated 141819
  RLU Average, trypomastigote viability: 138438 RLU
T. cruzi trypomastigotes; 48 h, 0.390625 µM, untreated 141819
  RLU Average, trypomastigote viability: 137289 RLU
T. cruzi trypomastigotes; 48 h, 0.78125 µM, untreated 141819
  RLU Average, trypomastigote viability: 133179 RLU
T. cruzi trypomastigotes; 48 h, 1.5625 µM, untreated 141819
  RLU Average, trypomastigote viability: 131008 RLU
T. cruzi trypomastigotes; 48 h, 3.125 µM, untreated 141819
  RLU Average, trypomastigote viability: 112009 RLU
T. cruzi trypomastigotes; 48 h, 6.25 µM, untreated 141819
  RLU Average, trypomastigote viability: 31326 RLU
T. cruzi trypomastigotes; 48 h, 12.5 µM, untreated 141819
  RLU Average, trypomastigote viability: 8227 RLU
T. cruzi trypomastigotes; 48 h, 25 µM, untreated 141819
  RLU Average, trypomastigote viability: 5426 RLU
T. cruzi trypomastigotes; 48 h, 50 µM, untreated 141819
  RLU Average, trypomastigote viability: 4626 RLU
T. cruzi trypomastigotes; 72 h, 0.0976562 µM, untreated 100126
  RLU Average, trypomastigote viability: 97547 RLU
T. cruzi trypomastigotes; 72 h, 0.195312 µM, untreated 100126
  RLU Average, trypomastigote viability: 99515 RLU
T. cruzi trypomastigotes; 72 h, 0.390625 µM, untreated 100126
  RLU Average, trypomastigote viability: 99635 RLU
T. cruzi trypomastigotes; 72 h, 0.78125 µM, untreated 100126
  RLU Average, trypomastigote viability: 98868 RLU
T. cruzi trypomastigotes; 72 h, 1.5625 µM, untreated 100126
  RLU Average, trypomastigote viability: 97232 RLU
T. cruzi trypomastigotes; 72 h, 3.125 µM, untreated 100126
  RLU Average, trypomastigote viability: 91895 RLU
T. cruzi trypomastigotes; 72 h, 6.25 µM, untreated 100126
  RLU Average, trypomastigote viability: 17556 RLU
T. cruzi trypomastigotes; 72 h, 12.5 µM, untreated 100126
  RLU Average, trypomastigote viability: 4224 RLU
T. cruzi trypomastigotes; 72 h, 25 µM, untreated 100126
  RLU Average, trypomastigote viability: 2493 RLU
T. cruzi trypomastigotes; 72 h, 50 µM, untreated 100126
  RLU Average, trypomastigote viability: 1583 RLU
T. cruzi trypomastigotes; 24 h
  EC50: 3.29 µM
  EC90/EC50: 3.20
  Hill slope: 2.11
T. cruzi trypomastigotes; 48 h
  EC50: 4.45 µM
  EC90/EC50: 1.72
  Hill slope: 4.10
T. cruzi trypomastigotes; 72 h
  EC50: 4.77 µM
  EC90/EC50: 1.42
  Hill slope: 6.31
T. cruzi trypomastigotes; 48 h, listed as C
  Hill slope: 4.1
T. cruzi trypomastigotes; 48 h, listed as strasseriolide C
  EC90/EC50: 1.7
T. cruzi trypomastigotes; 72 h, listed as C
  Hill slope: 6.3
T. cruzi trypomastigotes; 72 h, listed as strasseriolide C
  EC90/EC50: 1.4
[3]; 24 h
  EC90/EC50: 3.78
  Hill slope: 1.70
  EC50: 10.3 µM
[3]; 48 h
  EC90/EC50: 2.65
  Hill slope: 2.31
  EC50: 5.25 µM
[3]; 72 h
  EC90/EC50: 2.43
  Hill slope: 2.48
  EC50: 5.3 µM
[3]; 24 h, single replicates
  Growth inhibition (%), individual replicates: 74.7423%
[3]; 48 h, single replicates
  Growth inhibition (%), individual replicates: 94.7649% and 95.5652%
[3]; 72 h, single replicates
  Growth inhibition (%), individual replicates: 98.6747% and 99.1566%
[3]; 24 h, 24 h, average, read-out: Growth inhibition (%), Average
  inhibition at 50 µM: 73.4%
[3]; 24 h, 24 h, single replicates, read-out: Growth inhibition (%), individual replicates
  inhibition at 50 µM: 72.7%
[3]; 48 h, 48 h, average, read-out: Growth inhibition (%), Average
  inhibition at 50 µM: 94.9%
[3]; 48 h, 48 h, single replicates, read-out: Growth inhibition (%), individual replicates
  inhibition at 50 µM: 94.2%
[3]; 72 h, 72 h, average, read-out: Growth inhibition (%), Average
  inhibition at 50 µM: 98.8%
[3]; 72 h, 72 h, single replicates, read-out: Growth inhibition (%), individual replicates
  inhibition at 50 µM: 98.6%
[4]
  EC50: 59.6 µM
